Patent US5863918A, “Naphthalene derivatives” (Fujisawa Pharmaceutical Co., Ltd., priority 1994, dated 1999)
Counter-ions that a name gives are not always drawn.

Experiments:
[1] = test system: human platelet aggregation induced by ADP; experiment: Inhibition of human platelet aggregation induced by ADP; type: cell-based; conditions: ADP 2.5 μM, platelet rich plasma, mean ± S.E.
Method: Human blood was obtained from healthy volunteers and mixed with 1/10 volume of 3.8% sodium citrate, pH 7.4. The citrate blood was centrifuged at 150×g for 10 minutes and the platelet rich plasma (PRP) was removed. The remaining blood was centrifuged for a further 10 minutes at 1500×g to prepare the platelet poor plasma (PPP), which was used as a reference for platelet aggregation. Aggregation studies were carried out using HEMATRACER 801 (NBS, Japan), a 8 channel aggregometer. 25 μl of sample solution and 225 μl of PRP were mixed and stirred at 1000 rpm for 2 minutes at 37° C. Aggregation was induced by ADP solution at the final concentration of 2.5 μM.

[2] = test system: mean arterial blood pressure in conscious rats; experiment: Effect on mean arterial blood pressure in conscious rats; type: in vivo, rat (male Sprague-Dawley); conditions: 10 mg/kg; intravenous (femoral vein)
Method: Male Sprague-Dawley rats, aged 8-9 weeks, were anesthetized with ether. A polyethylene cannula filled with heparin solution was inserted into the femoral artery of the rats to measure mean blood pressure. Mean blood pressure was measured with a pressure transducer and recorded on a polygraph. The test compound dissolved in ethanol, polyethylene glycol and distilled water (1:1:1) was administered through a polyethylene cannula inserted into the femoral vein in a volume of 1 ml/kg. Intravenous hypotensive effect of the test compound was expressed as the maximal decrease (R max). Briefly, R max was expressed as maximal % change compared to mean blood pressure prior to the administration of the test compound.

[3] = test system: human IP receptor; experiment: Receptor binding assay ([^3 H]-iloprost binding to human IP receptor expressed in COS7); conditions: test compound 1×10^-6 M; 10 nM [^3 H]-iloprost; 60 minutes, 30° C.
Method: cDNA of human IP receptor was cloned and expressed in COS7 using pCDM8 vector in a similar manner to that described in the literatures [J. Biol. Chem., Vol. 269, No. 16, pp.12173-12178 (1994): Circulation, Vol. 90, No. 4, pp1643-1647 (1994) FEBS Letters 344 (1994) 74-78].
After transfection, cells which expressed human IP receptor were collected with ce l scraper at 4° C. and stored in -80° C.
The composition of assay buffer was as follows: 20 mM MES (pH 6.0), 10 mM MgCl2, 1 mM EDTA, and 0.1 mM PMSF. Frozen cells were thawed and aliquots (4.5×10^5 cells) were incubated for 60 minutes under shaking at 30° C. in plastic tubes in 100 μl of assay buffer with 10 nM of [^3 H]-iloprost in the presence or absence of the test compound (1×10^-6 M).
To determine the non-specific binding, iloprost at 10 μM was added. Each assay was preformed in duplicate. Reaction mixture was filtered through a Whatman GF/C glass filter to stop the reaction. After washing the filter with ice-cold assay buffer, the radioactivity of the filter was countered. Non-specific binding was subtracted from total binding to yield specific binding. The effect of the test compound was expressed as % inhibition of specific [^3 H]-iloprost binding.

O=C(O)COc1cccc2c1CCC(O)(COC(=O)N(c1ccccc1)c1ccccc1)C2 (stereo not shown) [Test compound (1), Sodium salt of [5-(carboxymethoxy)-2-hydroxy-1,2,3,4-tetrahydro-2-naphthyl]methyl N,N-diphenylcarbamate]
inhibition at 0.1 µM ([1]; 1.0 × 10^-7 M): 97 ± 1.2%
R max (%): maximal decrease (maximal % change compared to mean blood pressure prior to administration) [2]: 27.5%

O=C(O)COc1cccc2c1CCC(Cn1nc(C(c3ccccc3)c3ccccc3)ccc1=O)C2 (stereo not shown) [Test compound (2), 2-[(1,2,3,4-Tetrahydro-5-carboxymethoxy-2-naphthyl)methyl]-6-diphenylmethyl-3(2H)-pyridazinone]
inhibition at 1 µM ([1]; 1.0 × 10^-6 M): 100 ± 0.4%

O=C(O)COc1cccc2c1CC[C@](O)(COC(=O)N(c1ccccc1)c1ccccc1)C2 [Sodium salt of (2R)-[5-(carboxymethoxy)-2-hydroxy-1,2,3,4-tetrahydro-2-naphthyl]methyl N,N-diphenylcarbamate]
Inhibition (%) of specific [^3 H]-iloprost binding [3]: 96.5%
